We go through two molecules from PMC1950744, “Transcription Termination Defective Mutants of Rho: Role of Different Functions of Rho in Releasing RNA from the Elongation Complex” (Journal of Molecular Biology, 2007).

The target in series [1] is T1, Rho (Escherichia coli, UniProt P0AG30, I382N).
T1 construct: full-length WT rho in pET21b (pRS96; NdeI/XhoI), C-terminal His-tag kept, expressed in E. coli BL21(DE3) (I382N in BL21SI), Ni-NTA and heparin-Sepharose; homo-hexamer; 419 residues natural length
T1 sequence (P0AG30 whole entry I382N): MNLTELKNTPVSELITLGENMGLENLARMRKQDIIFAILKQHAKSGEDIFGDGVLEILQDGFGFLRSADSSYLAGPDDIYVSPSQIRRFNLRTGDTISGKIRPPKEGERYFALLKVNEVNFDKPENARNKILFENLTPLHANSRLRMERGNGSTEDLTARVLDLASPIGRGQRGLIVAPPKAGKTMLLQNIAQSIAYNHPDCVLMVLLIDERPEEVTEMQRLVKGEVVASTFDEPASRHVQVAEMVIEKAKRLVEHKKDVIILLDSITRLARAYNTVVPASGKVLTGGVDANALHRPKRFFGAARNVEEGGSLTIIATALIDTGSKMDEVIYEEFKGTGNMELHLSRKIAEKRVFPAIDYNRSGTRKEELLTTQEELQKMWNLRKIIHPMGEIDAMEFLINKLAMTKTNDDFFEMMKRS
The series is described as follows: UV cross-linking of [γ-32P]ATP, SDS-PAGE, hyperbolic fit. Format: binding. The conditions noted are these: read-out: Kd, app. From the text:
(§1) UV cross-linking of [γ-32P]ATP, SDS-PAGE, hyperbolic fit on Rho

For series [2], the target named is T2, Rho (Escherichia coli, UniProt P0AG30, G51V).
T2 construct: full-length WT rho in pET21b (pRS96; NdeI/XhoI), C-terminal His-tag kept, expressed in E. coli BL21(DE3) (I382N in BL21SI), Ni-NTA and heparin-Sepharose; homo-hexamer; 419 residues natural length
T2 sequence (P0AG30 whole entry G51V): as the sequence (P0AG30 whole entry I382N) above, with G51V, N382I counted along it
The description is as above. Format: binding. The settings on record: read-out: Kd, app.
Excerpt: as §1

The target of series [3] is T3, Rho (Escherichia coli, UniProt P0AG30, G324D).
T3 construct: full-length WT rho in pET21b (pRS96; NdeI/XhoI), C-terminal His-tag kept, expressed in E. coli BL21(DE3) (I382N in BL21SI), Ni-NTA and heparin-Sepharose; homo-hexamer; 419 residues natural length
T3 sequence (P0AG30 whole entry G324D): as the sequence (P0AG30 whole entry I382N) above, with G324D, N382I counted along it
The series is described as above. In kind it is binding. The settings on record: read-out: Kd, app.
Excerpt: as §1

In series [4] the target is T4, Rho (Escherichia coli, UniProt P0AG30, Y274D).
T4 construct: full-length WT rho in pET21b (pRS96; NdeI/XhoI), C-terminal His-tag kept, expressed in E. coli BL21(DE3) (I382N in BL21SI), Ni-NTA and heparin-Sepharose; homo-hexamer; 419 residues natural length
T4 sequence (P0AG30 whole entry Y274D): as the sequence (P0AG30 whole entry I382N) above, with Y274D, N382I counted along it
The series is described as above. Format: binding. The conditions noted are these: read-out: Kd, app.
Excerpt: as §1

Series [5] addresses T5, Rho (Escherichia coli, UniProt P0AG30, P279S).
T5 construct: full-length WT rho in pET21b (pRS96; NdeI/XhoI), C-terminal His-tag kept, expressed in E. coli BL21(DE3) (I382N in BL21SI), Ni-NTA and heparin-Sepharose; homo-hexamer; 419 residues natural length
The series is described as above. The conditions noted are these: read-out: Kd, app. In kind it is binding.
Excerpt: as §1

The target of series [6] is T6, Rho (Escherichia coli, UniProt P0AG30, N340S).
T6 construct: full-length WT rho in pET21b (pRS96; NdeI/XhoI), C-terminal His-tag kept, expressed in E. coli BL21(DE3) (I382N in BL21SI), Ni-NTA and heparin-Sepharose; homo-hexamer; 419 residues natural length
T6 sequence (P0AG30 whole entry N340S): as the sequence (P0AG30 whole entry I382N) above, with N340S, N382I counted along it
Described as above. The settings on record: read-out: Kd, app. Format: binding.
Excerpt: as §1

For series [7], the system named is T7, Nc1ncnc2c1ncn2[C@@H]1O[C@H](COP(=O)(O)OP(=O)(O)OP(=O)(O)O)[C@@H](O)[C@H]1O.
T7 construct: full-length WT rho in pET21b (pRS96; NdeI/XhoI), C-terminal His-tag kept, expressed in E. coli BL21(DE3) (I382N in BL21SI), Ni-NTA and heparin-Sepharose; homo-hexamer; 419 residues natural length
Kind of series: ATPase assay, Pi release by TLC, Lineweaver-Burk. The conditions noted are these: poly(C) 10 μM as cofactor, 5 nM Rho, 25 mM Tris-HCl pH 8.0, 50 mM KCl, 5 mM MgCl2, 1 mM DTT, 0.1 mg/ml BSA, 30 °C. In kind it is biochemical, Escherichia coli. The text has this:
ATPase assay, Pi release by TLC, Lineweaver-Burk on Rho

T5 sequence (P0AG30 whole entry P279S): as the sequence (P0AG30 whole entry I382N) above, with P279S, N382I counted along it

For `Nc1ncnc2c1ncn2[C@@H]1O[C@H](COP(=O)(O)OP(=O)(O)OP(=O)(O)O)[C@@H](O)[C@H]1O` [ATP], the Kd on Rho [1] came out at 600 ± 100 nM; on Rho [2], 1350 ± 260 nM; at Rho [3], 2450 ± 150 nM; at Rho [4] it was 3150 ± 260 nM; at Rho [5], 4280 ± 540 nM; on Rho [6], 1090 ± 120 nM.

By Km is commonly meant the substrate concentration at which the rate is half of its maximum. As for Rho (Escherichia coli K-12; Y80C), in series [7], the Km is 43.2 ± 0.8 µM.
